Earlier results, collected in patent US9375441B2, “Lactulose for bowel evacuation” (Cumberland Pharmaceuticals, priority 2011, dated 2016).

Experiments:
[1] = system: patients with a history of chronic constipation
[2] = not given; remark: listed apart in the source
[3] = system: patients at increased risk for colorectal cancer

Structure (SMILES): OC[C@H]1O[C@@H](O[C@@H]2[C@@H](CO)O[C@](O)(CO)[C@H]2O)[C@H](O)[C@@H](O)[C@H]1O [lactulose, 4-O-b-D-Galactopyranosyl-D-fructofuranose]
- solubility in water: freely soluble
- number of bowel movements per day and number of days on which bowel movements occur [1]: increases
- state in which oral doses reach the colon ([2]; no hydrolysing enzyme in human gastrointestinal tissue): virtually unchanged
- absorption from the gastrointestinal tract ([2]; oral): poorly absorbed
- patients with diarrhea sometime during the bowel preparation, % ([3]; 12 g lactulose powder once per day from 48 hours before MR colonography): 38%
- patients with diarrhea sometime during the bowel preparation, number ([3]; 12 g lactulose powder once per day from 48 hours before MR colonography, low-fiber diet, oral gadolinium contrast): 77
- patients in whom diarrhea occurred just prior to imaging, number ([3]; of the 77 patients with diarrhea): 48
